Results taken from patent publication US9132131B2, “Use of adenosine A3 receptor agonists for treatment of neuropathic pain” (Saint Louis University, priority 2011, dated 2015).

Key:
[1] = tested on: SKBR3 breast cancer cells; test: MTT cell survival assay, SKBR3; assay type: cell-based, human
Protocol: Cells were cultured and assayed in DMEM (SKBR3; human breast cancer cells), L15 (SW480; human colon cancer cells) or RPMI […] (RPMI 8226; human multiple myeloma cells) supplemented with heat-denatured 10% FBS and penicillin/streptomycin at 37° C., 0% (SW480) or 5% CO2 (SKBR3 and RPMI 8226), 95% humidity. The antitumor activities of these agents were measured in cells (6.25×10^4 cells/well) cultured overnight in 24-well plates (SKBR3 and SW480; BD Biosciences) or 12 mm×7.5 mm culture tubes (RPMI 8226; BD Biosciences) in complete media. […] Two naïve control wells were included as a control for 100% survival. Cell survival was determined using a MTT (3-(4,5-dimethylthiazol-2-yl)-2,5-diphenyltetrazolium bromide) assay adapted from a previously described assay. Cells were incubated with MTT (500 μg/ml) for 75 minutes at 37° C., 0% or 5% CO2, 95% humidity, removing the media and dissolving the tetrazolium crystals in isopropanol. […] The antitumor effects of IB-MECA alone were determined as % Survivability=(A560-570 nm of chemotherapeutic vehicle+IB-MECA)/(mean A560-570 nm of the naïve control wells)×100. The LD50 of each chemotherapeutic agent+IB-MECA or its vehicle was calculated using three-parameter non-linear analysis using % Survivability=(A560-570 nm of chemotherapeutic+IB-MECA or its vehicle)/(mean A560-570 nm chemotherapeutic vehicle+vehicle of IB-MECA)×100. The top and bottom plateaus were constrained using GraphPad Prism v5.03 (GraphPad Software, Inc.).

[2] = tested on: oxaliplatin-induced neuropathic pain; test: Oxaliplatin-induced neuropathic pain (mechano-allodynia, mechano-hyperalgesia); assay type: in vivo, rats
[3] = tested on: acute nociception (tail flick latency); test: Tail flick assay for acute nociception; assay type: in vivo, mice; details: IB-MECA, MRS1898 0.5 μmol/kg i.p. at 30, 60, 120 minutes; morphine 35 μmol/kg s.c. positive control
Protocol: Tail flick and hot plate assay in mice for acute nociception. The tail flick test, which measures latency(s) of tail withdrawal from a noxious radiant heat source (Ugo Basile; model number 37360) was used to measure thermal nociceptive sensitivity in mice with baseline latencies of 3-5 seconds and a cut-off time of 15 seconds to prevent tissue injury. Tail flick latencies were taken before and at 30, 60 and 120 minutes after i.p. injection of IB-MECA, MRS1898 (0.5 μmol/kg) or its vehicle (0.1% DMSO in saline). For the hot plate test, nociceptive thresholds were determined as previously reported by our group by measuring latencies (in seconds) of mice placed in a transparent glass cylinder on a hot plate maintained at 52° C.. Responses indicative of nociception included intermittent lifting and/or licking of the hindpaws or escape behavior. Hot plate latencies were taken in mice from all groups before and after drug administration. A cut-off latency of 15 seconds was employed to prevent tissue damage.

Question: For `CNC(=O)[C@H]1O[C@@H](n2cnc3c(NCc4cccc(I)c4)ncnc32)[C@H](O)[C@@H]1O` [IB-MECA, N^6-(3-iodobenzyl)-adenosine-5′-N-methyluronamide], which “effect on the antitumor effects of paclitaxel, oxaliplatin or bortezomib” value ([1]; IB-MECA 10 nM, human breast, colon and multiple myeloma cancer cells) is on record?
Answer: did not diminish

Question: And the “decrease in cell survival when used alone” value ([1]; IB-MECA 10 nM, stated for the cell lines tested (SKBR3, SW480, RPMI 8226))?
Answer: < 20%

Question: And the “effect of higher doses on the cell lines” value ([1]; doses above 10 nM, all three cell lines)?
Answer: direct antitumor effects

Question: And the “effect on development of oxaliplatin-induced neuropathic pain” value ([2]; 0.02-0.2 μmol/kg/d D0-D17)?
Answer: attenuated dose-dependently

Question: What about the “neuropathic pain upon drug termination” value ([2]; oxaliplatin model, through D25) of the same molecule?
Answer: did not emerge upon drug termination

Question: What about the “D17 ED50, prevention of oxaliplatin-induced mechano-allodynia” value ([2]; rats, daily D0-D17) of the same molecule?
Answer: 0.05 µmol/kg/day

Question: And the “D17 ED50, prevention of oxaliplatin-induced mechano-hyperalgesia” value ([2]; rats, daily D0-D17)?
Answer: 0.06 µmol/kg/day

Question: What about the “effect on tail flick latency” value [3] of the same molecule?
Answer: lacked effect
